Measurements reported in ChEMBL document CHEMBL2440066, “Acidic biphenyl derivatives: synthesis and biological activity of a new series of potent 5-HT(4) receptor antagonists” (Bioorg Med Chem, 2013).

What was measured:
[1] = target: 5-hydroxytryptamine receptor 4 (Rattus norvegicus) (UniProt Q62758); assay: Antagonist activity at 5-HT4 receptor in rat carbachol-contracted esophagus muscularis mucosae assessed as inhibition of 5-HT-induced relaxation
[2] = target: T1, 5-hydroxytryptamine receptor 4 (Homo sapiens, UniProt Q13639); assay: Displacement of [125I]SB207710 from human recombinant 5-HT4 receptor
[3] = target: 5-hydroxytryptamine receptor 4 (Cavia porcellus, UniProt O70528); assay: Displacement of [125I]SB207710 from 5-HT4 receptor in guinea pig brain membranes; type: cell membranes, Membrane
3T3-L1 = assay: Cytotoxicity against mouse 3T3L1 cells assessed as cell death at 5 ug/ml after 72 hrs by neutral red assay; type: cell-based; conditions: 3t3-l1, 72 h
[4] = target: Voltage-gated inwardly rectifying potassium channel KCNH2 (Homo sapiens, UniProt Q12809); assay: Inhibition of human ERG expressed in HEK293 cells by patch-clamp technique; type: cell-based
[5] = target: T1, 5-hydroxytryptamine receptor 4; assay: Displacement of [3H]GR113808 from human 5HT4B receptor expressed in HEK293 cells; type: cell-based
[6] = Octanol-buffer partition coefficient, log D of the compound at pH 7.4; type: physicochemical
hERG (KCNH2) [7] = target: T2, hERG (KCNH2) (Homo sapiens, UniProt Q12809); assay: Inhibition of human ERG expressed in HEK293 cells at 100 uM by patch-clamp technique; type: cell-based; conditions: HEK293 cells that express hERG
[8] = Apparent permeability of the compound in human Caco2 cells at 1 uM; type: ADME, cell-based; conditions: Caco-2
[9] = target: T3, Type-1 angiotensin II receptor (Homo sapiens, UniProt P30556); assay: Displacement of [tyrosyl-3,5-3H]angiotensin-2 from AT1 receptor (unknown origin) expressed in QBI-HEK293A cells after 2 hrs; type: cell-based, HEK293-A
T3 sequence (P30556 whole entry): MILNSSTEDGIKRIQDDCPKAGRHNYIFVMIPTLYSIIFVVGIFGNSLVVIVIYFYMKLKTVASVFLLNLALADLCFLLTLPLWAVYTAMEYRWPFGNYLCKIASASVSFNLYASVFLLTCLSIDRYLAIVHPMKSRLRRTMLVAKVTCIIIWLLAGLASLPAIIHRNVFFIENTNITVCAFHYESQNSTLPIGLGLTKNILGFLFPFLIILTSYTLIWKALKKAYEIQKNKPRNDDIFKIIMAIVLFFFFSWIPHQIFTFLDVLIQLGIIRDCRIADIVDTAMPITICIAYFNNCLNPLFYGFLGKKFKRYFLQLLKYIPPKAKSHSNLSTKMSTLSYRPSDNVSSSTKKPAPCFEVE

[10] = target: T1, 5-hydroxytryptamine receptor 4; assay: Antagonist activity at human 5HT4B receptor expressed in HEK293 cells assessed as inhibition of 5HT-stimulated adenylyl cyclase activity; type: functional, cell-based
[11] = target: 5-hydroxytryptamine receptor 4 (Rattus norvegicus) (UniProt Q62758); assay: Antagonist activity at 5-HT4 receptor in rat esophagus assessed as inhibition of 5-HT-induced relaxation; type: tissue-based
hERG (KCNH2) [12] = target: T2, hERG (KCNH2); assay: Inhibition of human ERG expressed in HEK293 cells at 50 uM by patch-clamp technique; type: cell-based; conditions: HEK293 cells that express hERG
Rattus norvegicus [13] = assay: AUC (0 to infinity) in Sprague-Dawley rat assessed as 4'-((4-(((3,4-Dihydro-2H-[1,3]oxazino[3,2-a]indole-10-carbonyl)oxy)methyl)piperidin-1-yl)methyl)[1,1'-biphenyl]-2-carboxylic acid level at 10 mg/kg, po; type: ADME, organism-based, Plasma; set-up: time infinity, dose 10 mg/kg, route oral; conditions: in vivo
Rattus norvegicus [14] = assay: Cmax in Sprague-Dawley rat assessed as 4'-((4-(((3,4-Dihydro-2H-[1,3]oxazino[3,2-a]indole-10-carbonyl)oxy)methyl)piperidin-1-yl)methyl)[1,1'-biphenyl]-2-carboxylic acid level at 10 mg/kg, po; type: ADME, organism-based; set-up: dose 10 mg/kg, route oral; conditions: in vivo
Rattus norvegicus [15] = assay: AUC (0 to 6 hrs) in Sprague-Dawley rat assessed as 4'-((4-(((3,4-Dihydro-2H-[1,3]oxazino[3,2-a]indole-10-carbonyl)oxy)methyl)piperidin-1-yl)methyl)[1,1'-biphenyl]-2-carboxylic acid level at 10 mg/kg, po; type: ADME, organism-based, Plasma; set-up: time < 6 hr, dose 10 mg/kg, route oral; conditions: in vivo
[16] = Cmax in Sprague-Dawley rat at 10 mg/kg, po; type: ADME, organism-based; set-up: dose 10 mg/kg, route oral; conditions: in vivo
[17] = Tmax in Sprague-Dawley rat at 10 mg/kg, po; type: ADME, organism-based; set-up: dose 10 mg/kg, route oral; conditions: in vivo
Rattus norvegicus [18] = assay: Tmax in Sprague-Dawley rat assessed as 4'-((4-(((3,4-Dihydro-2H-[1,3]oxazino[3,2-a]indole-10-carbonyl)oxy)methyl)piperidin-1-yl)methyl)[1,1'-biphenyl]-2-carboxylic acid level at 10 mg/kg, po; type: ADME, organism-based; set-up: dose 10 mg/kg, route oral; conditions: in vivo
hERG (KCNH2) [19] = target: T2, hERG (KCNH2); assay: Inhibition of human ERG expressed in HEK293 cells at 10 uM by patch-clamp technique; type: cell-based; conditions: HEK293 cells that express hERG
[20] = AUC (0 to 6 hrs) in Sprague-Dawley rat at 10 mg/kg, po; type: ADME, organism-based; set-up: time < 6 hr, dose 10 mg/kg, route oral; conditions: plasma
Rattus norvegicus [21] = assay: Elimination half life in Sprague-Dawley rat assessed as 4'-((4-(((3,4-Dihydro-2H-[1,3]oxazino[3,2-a]indole-10-carbonyl)oxy)methyl)piperidin-1-yl)methyl)[1,1'-biphenyl]-2-carboxylic acid level at 10 mg/kg, po; type: ADME, organism-based; set-up: dose 10 mg/kg, route oral; conditions: in vivo

Voltage-gated inwardly rectifying potassium channel KCNH2, sequence (Q12809 whole entry): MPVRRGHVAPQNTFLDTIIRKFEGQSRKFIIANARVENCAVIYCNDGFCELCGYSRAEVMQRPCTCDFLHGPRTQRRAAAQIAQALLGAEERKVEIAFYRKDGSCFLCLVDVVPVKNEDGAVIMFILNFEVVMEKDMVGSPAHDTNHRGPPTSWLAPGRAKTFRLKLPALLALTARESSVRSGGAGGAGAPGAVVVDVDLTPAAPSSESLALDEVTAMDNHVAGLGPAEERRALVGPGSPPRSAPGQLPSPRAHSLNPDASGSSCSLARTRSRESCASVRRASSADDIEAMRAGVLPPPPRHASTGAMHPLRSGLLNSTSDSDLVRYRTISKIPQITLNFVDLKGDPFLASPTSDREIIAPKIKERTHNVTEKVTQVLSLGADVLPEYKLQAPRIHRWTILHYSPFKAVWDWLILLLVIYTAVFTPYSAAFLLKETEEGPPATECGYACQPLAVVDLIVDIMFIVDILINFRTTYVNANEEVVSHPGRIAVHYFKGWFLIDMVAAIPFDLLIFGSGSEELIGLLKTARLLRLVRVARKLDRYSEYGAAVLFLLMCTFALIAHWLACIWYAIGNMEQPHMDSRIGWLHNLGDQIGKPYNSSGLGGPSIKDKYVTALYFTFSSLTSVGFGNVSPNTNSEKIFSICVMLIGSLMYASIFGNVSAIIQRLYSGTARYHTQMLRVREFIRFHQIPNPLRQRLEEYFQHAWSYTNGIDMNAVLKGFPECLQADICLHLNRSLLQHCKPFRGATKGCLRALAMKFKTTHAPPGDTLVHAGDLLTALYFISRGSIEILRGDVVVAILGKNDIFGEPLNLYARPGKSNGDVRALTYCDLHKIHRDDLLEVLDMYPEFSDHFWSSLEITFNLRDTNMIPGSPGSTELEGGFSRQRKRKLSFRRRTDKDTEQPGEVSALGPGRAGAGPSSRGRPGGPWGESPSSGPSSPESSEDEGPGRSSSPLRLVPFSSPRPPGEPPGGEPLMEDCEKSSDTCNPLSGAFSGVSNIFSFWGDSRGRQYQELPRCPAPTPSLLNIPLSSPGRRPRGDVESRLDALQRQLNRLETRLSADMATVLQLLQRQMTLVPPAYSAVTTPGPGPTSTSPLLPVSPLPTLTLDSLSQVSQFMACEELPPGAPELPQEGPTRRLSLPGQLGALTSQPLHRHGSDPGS
T2 sequence (Q12809 whole entry): as above
T1 sequence (Q13639 whole entry): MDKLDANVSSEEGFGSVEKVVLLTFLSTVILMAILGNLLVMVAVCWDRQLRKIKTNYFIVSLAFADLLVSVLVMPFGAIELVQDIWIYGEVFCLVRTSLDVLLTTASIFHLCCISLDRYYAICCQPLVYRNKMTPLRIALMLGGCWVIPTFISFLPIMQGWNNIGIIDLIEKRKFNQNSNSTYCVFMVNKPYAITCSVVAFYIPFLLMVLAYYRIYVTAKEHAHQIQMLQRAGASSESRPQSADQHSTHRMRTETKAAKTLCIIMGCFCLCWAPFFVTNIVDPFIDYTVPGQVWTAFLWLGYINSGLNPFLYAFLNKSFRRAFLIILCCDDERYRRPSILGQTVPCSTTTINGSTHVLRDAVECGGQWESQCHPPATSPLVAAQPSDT
5-hydroxytryptamine receptor 4 (Cavia porcellus, UniProt O70528), sequence (O70528 whole entry): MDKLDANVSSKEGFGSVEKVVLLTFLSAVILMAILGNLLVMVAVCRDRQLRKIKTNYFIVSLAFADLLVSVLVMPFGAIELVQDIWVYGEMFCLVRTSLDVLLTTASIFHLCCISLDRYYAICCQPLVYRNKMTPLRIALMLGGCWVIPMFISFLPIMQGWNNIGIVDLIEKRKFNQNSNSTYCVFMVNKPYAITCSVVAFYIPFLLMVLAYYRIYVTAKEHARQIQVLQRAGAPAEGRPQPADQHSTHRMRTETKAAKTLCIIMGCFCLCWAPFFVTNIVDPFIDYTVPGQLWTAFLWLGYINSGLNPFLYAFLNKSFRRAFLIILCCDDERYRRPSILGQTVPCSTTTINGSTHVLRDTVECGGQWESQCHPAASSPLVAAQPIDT
5-hydroxytryptamine receptor 4 (Rattus norvegicus), sequence (Q62758 whole entry): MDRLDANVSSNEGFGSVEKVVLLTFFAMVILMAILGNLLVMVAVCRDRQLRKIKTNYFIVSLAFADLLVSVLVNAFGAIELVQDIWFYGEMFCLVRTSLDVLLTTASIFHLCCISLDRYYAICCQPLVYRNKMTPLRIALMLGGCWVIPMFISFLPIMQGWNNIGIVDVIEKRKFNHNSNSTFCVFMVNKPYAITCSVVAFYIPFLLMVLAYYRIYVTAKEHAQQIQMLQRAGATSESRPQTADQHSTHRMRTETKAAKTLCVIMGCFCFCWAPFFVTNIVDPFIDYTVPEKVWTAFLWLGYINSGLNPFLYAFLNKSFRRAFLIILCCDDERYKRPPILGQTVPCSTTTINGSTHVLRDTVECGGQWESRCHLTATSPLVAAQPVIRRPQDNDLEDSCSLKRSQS

## COc1ccc(CCCN2CCC(CCC(=O)c3cc(Cl)c(N)c4c3OCCO4)CC2)cc1
[1]
  pKb: 10.6

## O=C(NCC1CCNCC1)c1c2n(c3ccccc13)CCCO2
[2]
  Ki: 63.1 nM
[3]
  Ki: 63.1 nM

## CS(=O)(=O)O.O=C(O)c1ccccc1-c1ccc(CN2CCC(COC(=O)c3c4n(c5ccccc35)CCCO4)CC2)cc1
3T3-L1
  Activity: 14%
[4]
  IC50: 47500 nM
[5]
  Ki: 0.0501 nM
[6]
  logD: 1.3
hERG (KCNH2) [7]
  inhibition at 100 µM: 31%
[8]
  Papp at 1 µM: 0.8 ×10⁻⁶ cm/s
[9]
  Ki: 1580 nM
[10]
  pKb: 9.8

## CC(=O)OCOC(=O)c1ccccc1-c1ccc(CN2CCC(COC(=O)c3c4n(c5ccccc35)CCCO4)CC2)cc1.CS(=O)(=O)O
[6]
  logD: 4.5
[8]
  Papp at 1 µM: 1.4 ×10⁻⁶ cm/s

## Cc1noc(-c2ccccc2NC(=O)OCC2CCN(CCNS(C)(=O)=O)CC2)n1
[11]
  pKb: 10.8

## Cc1noc(-c2ccc(F)cc2NC(=O)OCC2CCN(CCNS(C)(=O)=O)CC2)n1
[11]
  pKb: 8.9

## CCCCN1CCC(CNC(=O)c2c3n(c4ccccc24)CCCO3)CC1 [PIBOSEROD]
[2]
  Ki: 1.58 nM
[3]
  Ki: 1.58 nM
[9]
  Ki: > 10000 nM
[10]
  pKb: 9.5

## O=C(O)c1ccccc1-c1ccc(CN2CCC(CNC(=O)c3c4n(c5ccccc35)CCCO4)CC2)cc1
[5]
  Ki: 0.631 nM
[9]
  Ki: > 10000 nM

## Cl.O=C(OCc1ccccc1)c1ccccc1-c1ccc(CN2CCC(COC(=O)c3c4n(c5ccccc35)CCCO4)CC2)cc1
[6]
  logD: 5.1
[8]
  Papp at 1 µM: 1.1 ×10⁻⁶ cm/s

## CCCCN1CCC(CCC(=O)c2cc(Cl)c(N)c3c2OCCO3)CC1
[1]
  pKb: 9.9

## CS(=O)(=O)O.Cc1oc(=O)oc1COC(=O)c1ccccc1-c1ccc(CN2CCC(COC(=O)c3c4n(c5ccccc35)CCCO4)CC2)cc1
[6]
  logD: 4.6
[8]
  Papp at 1 µM: 16.1 ×10⁻⁶ cm/s

## COC(=O)c1ccccc1-c1ccc(CN2CCC(CNC(=O)c3c4n(c5ccccc35)CCCO4)CC2)cc1
[5]
  Ki: 0.0631 nM
[9]
  Ki: > 10000 nM

## O=C(OCC1CCN(Cc2ccc(-c3ccccc3-c3nn[nH]n3)cc2)CC1)c1c2n(c3ccccc13)CCCO2
hERG (KCNH2) [12]
  inhibition at 50 µM: 35%
3T3-L1
  Activity: 0%
[4]
  IC50: 27500 nM
[5]
  Ki: 2.51 nM
[6]
  logD: 1.6
[8]
  Papp at 1 µM: 2.9 ×10⁻⁶ cm/s
[9]
  Ki: > 10000 nM

## COc1ccc(NC(=O)OCC2CCN(CCNS(C)(=O)=O)CC2)c(-c2nc(C)no2)c1
[11]
  pKb: 8.1

## Cn1cc(C(=O)OCC2CCN(CCNS(C)(=O)=O)CC2)c2ccccc21
[10]
  pKb: 8.7

## CC(C)CCOC(=O)c1ccccc1-c1ccc(CN2CCC(COC(=O)c3c4n(c5ccccc35)CCCO4)CC2)cc1.CS(=O)(=O)O
[6]
  logD: 4.9
[8]
  Papp at 1 µM: 5.4 ×10⁻⁶ cm/s

## CC(C)(C)C(=O)OCn1nnc(-c2ccccc2-c2ccc(CN3CCC(COC(=O)c4c5n(c6ccccc46)CCCO5)CC3)cc2)n1.CS(=O)(=O)O
[6]
  logD: 4.3
[8]
  Papp at 1 µM: 5.1 ×10⁻⁶ cm/s

## O=C(NCC1CCN(Cc2ccc(-c3ccccc3-c3nnn[nH]3)cc2)CC1)c1c2n(c3ccccc13)CCCO2
3T3-L1
  Activity: 0%
[5]
  Ki: 3.98 nM
[9]
  Ki: > 10000 nM
[10]
  pKb: 9.7

## O=C(OCC1CCN(Cc2ccc(-c3ccccc3-c3nnn[nH]3)cc2)CC1)c1c2n(c3ccccc13)CCCO2
[10]
  pKb: 10.6

## Nc1c(Cl)cc(C(=O)CCC2CCN(CCCc3ccccc3)CC2)c2c1OCCO2
[1]
  pKb: 9.6

## CS(=O)(=O)NCCN1CCC(CCC(=O)c2cc(Cl)c(N)c3c2OCCO3)CC1
[1]
  pKb: 9.9

## CC(O)CCN1CCC(CNC(=O)c2c3n(c4ccccc24)CCCO3)CC1 (stereo unspecified)
[2]
  Ki: 0.794 nM
[3]
  Ki: 0.794 nM

## CCCCN1CCC(CNC(=O)c2c3n(c4cc(O)ccc24)CCCO3)CC1
[2]
  Ki: 794 nM
[3]
  Ki: 794 nM

## CC(C)(C)C(=O)OCOC(=O)c1ccccc1-c1ccc(CN2CCC(COC(=O)c3c4n(c5ccccc35)CCCO4)CC2)cc1.CS(=O)(=O)O
[6]
  logD: 4.7
[8]
  Papp at 1 µM: 9 ×10⁻⁶ cm/s

## COC(=O)c1ccccc1-c1ccc(CN2CCC(COC(=O)c3c4n(c5ccccc35)CCCO4)CC2)cc1.CS(=O)(=O)O
3T3-L1
  Activity: 75%
Rattus norvegicus [13]
  AUC: 542 ng·h/mL
[4]
  IC50: 131 nM
Rattus norvegicus [14]
  Cmax: 30 ng/mL
[5]
  Ki: 0.00126 nM
[6]
  logD: 4.5
Rattus norvegicus [15]
  AUC: 114 ng·h/mL
[16]
  Cmax: 244 ng/mL
[17]
  Tmax: 2 h
[8]
  Papp at 1 µM: 25 ×10⁻⁶ cm/s
Rattus norvegicus [18]
  Tmax: 1 h
hERG (KCNH2) [19]
  inhibition at 10 µM: 2%
[9]
  Ki: > 10000 nM
[20]
  AUC(0-t) at 6 h: 1110 ng·h/mL
Rattus norvegicus [21]
  beta t1/2: 15.6 h
[10]
  pKb: 10.6

## CCCCOC(=O)c1ccccc1-c1ccc(CN2CCC(COC(=O)c3c4n(c5ccccc35)CCCO4)CC2)cc1.CS(=O)(=O)O
Rattus norvegicus [13]
  AUC: 124 ng·h/mL
Rattus norvegicus [14]
  Cmax: 10 ng/mL
[6]
  logD: 4.9
Rattus norvegicus [15]
  AUC: 39 ng·h/mL
[16]
  Cmax: 80 ng/mL
[17]
  Tmax: 6 h
[8]
  Papp at 1 µM: 13.9 ×10⁻⁶ cm/s
Rattus norvegicus [18]
  Tmax: 2 h
[20]
  AUC(0-t) at 6 h: 313 ng·h/mL
Rattus norvegicus [21]
  beta t1/2: 9.92 h

## CC(C)NCC(O)c1ccc(NS(C)(=O)=O)cc1 (stereo unspecified) [SOTALOL]
[8]
  Papp at 1 µM: 0.8 ×10⁻⁶ cm/s
